Tested on: hepatocytes lacking RBPJ and HNF6
Experiment: In vitro conversion assay: 3D culture of hepatocyte spheroids in collagen gels
Type: cell-based, mouse
Details: 10 μM SB-431542 vs vehicle (DMSO)
Protocol: Genomic DNA was isolated from cells using QIAamp DNA Micro Kit or DNeasy Blood & Tissue Kit (Qiagen). RNA was extracted using Trizol Reagent (Thermo Fisher Scientific) and purified by isopropanol precipitation (cells in collagen gel) or purified using RNAeasy Mini Kit (Qiagen) (liver tissue). Reverse transcription was performed using qScript cDNA Supermix (Quanta Biosciences). qPCR was performed using SYBR green reagent (Thermo Fisher Scientific) in a ViiA 7 system (Thermo Fisher Scientific). Reactions were performed in triplicate, and expression was normalized to an Rbpj (genotyping) or Gapdh (Glyceraldehyde-3-phosphate Dehydrogenase; gene expression) reference and quantified using the ΔΔCt method.
In vitro 3D culture of hepatocytes to induce biliary conversion was carried out as previously reported^21 with the following modifications. Hepatocytes were isolated from 8-10-week-old Rbpj^f/f;Hnf6^f/f mice injected with 1×10^12 vgs of AAV8-Ttr-Cre 2 weeks prior to delete RBPJ and HNF6. Hepatocytes were isolated by 2-step collagenase perfusion followed by purification through a Percoll gradient, all in the absence of serum. Cells were grown on Primaria plates for 6 days to form spheroids. Spheroids were cultured in collagen gels (Cultrex Rat Collagen I, Lower Viscosity, Trevigen) in the presence of 10 μM SB-431542 (Selleckchem) or vehicle (DMSO). The medium was changed every other day.

NC(=O)c1ccc(-c2nc(-c3ccc4c(c3)OCO4)c(-c3ccccn3)[nH]2)cc1 [SB-431542]
biliary differentiation and morphogenesis of hepatocytes: blocks biliary differentiation and morphogenesis
